Article PMC4171606, “A novel copper(I) complex induces ER-stress-mediated apoptosis and sensitizes B-acute lymphoblastic leukemia cells to chemotherapeutic agents” (Oncotarget, 2014)

How the values were obtained:
Assay type in all cases: cell-based, human
[1] = test system: GRP78, CHOP, PARP, caspase-3; assay: Western blot on blast cells from B-ALL patients; conditions: CP 2.5 μM, 12 h
Experimental: FIGURE 6 CP effects on B-ALL primary cultures (A) Blast cells from six B-ALL patients were incubated for 24 h with different concentrations of CP. For the sake of comparison CD19^+ cells from peripheral blood of healthy donors, and PBMC were also incubated with CP in the presence or absence of PHA. Cell viability were assayed by MTT analysis. Data are represented as mean ± S.E.M of four independent experiments. (B) Bone marrow cells from healthy donors were treated for 24 h with CP (2.5 μM and 5 μM). Cell viability was evaluated on the whole population by flow cytometry after staining the cells with Annexin-V-FITC and PI. are represented as mean ± S.E.M of 3 independent experiments. (C) Western Blot analysis of GRP78 and CHOP expression, PARP cleavage and caspase-3 activation, on protein extracts of blast cells from B-ALL patients treated with CP (2.5 μM) for 12 h.
Cells were treated with CP and, after different times, were collected, centrifuged and washed with ice cold phosphate-buffered saline (PBS). The pellet was then resuspended in lysis buffer as described. The protein concentration in the supernatant was determined using the BCA protein assay (Pierce, Italy). Equal amounts of protein (10 μg) were resolved using SDS-PAGE gel electrophoresis (Criterion precast Tris-HCl gel, BioRad, Italy) and transferred to PVDF Hybond-p membranes (GE Healthcare, Italy). […]

[2] = test system: RS4;11, SEM, Jurkat and THP-1 cell lines and PBMC from healthy donors; assay: Cellular uptake, intracellular copper by GF-AAS; conditions: 6.25, 12.5 and 25 μM CP, 24 h, leukemic cells vs healthy PBMC
Experimental: In an attempt to correlate the cytotoxic activity of CP with its cellular uptake, the intracellular copper content was evaluated in RS4;11, SEM, Jurkat and THP-1 cell lines and PBMC from healthy donors treated for 24 h with increasing concentrations of CP. The intracellular copper amount (Figure 1, panel A) was quantified by GF-AAS analysis (Graphite Furnace Atomic Absorption Spectrometry).
FIGURE 1 CP uptake and effects on cell cycle and apoptosis induction A) RS4;11, SEM, THP1, Jurkat cell lines and healthy PBMC were incubated with 6.25, 12.5 and 25 μM of CP for 24 h. The intracellular accumulation of CP was detected by GF-AAS analysis. B) SEM and RS4;11 cells were treated with the indicated concentrations of CP for 24 h, cell cycle distribution and Sub-G1 contents were analyzed by flow cytometry after cell staining with PI. The percentages of each phase of the cell cycle (G1, S, G2/M) were calculated on living cells whereas the percentages of cells with hypodiploid DNA content peak (subG1) was referred to cell population characterized by the appearance of subG1 peak. C) SEM and RS4;11 cells were incubated with 2.5 μM CP for the indicated times and analyzed by flow cytometry after double staining with Annexin-V-FITC and PI. Data are represented as mean ± S.E.M. of three independent experiments. […]

[3] = test system: XBP1; assay: PCR analysis of XBP1 splicing; conditions: CP 2.5 μM, 12 h
Experimental: Moreover we found an increase in CHOP expression starting from 3 h of CP treatment. […] Whilst GRP78, due to its chaperon activity, exerts a protective function, CHOP promotes ER-stress cell death, thus the rapid activation of pro-death signals and the late activation of pro-survival chaperone GRP78 could explain the commitment toward apoptosis induced by CP. Moreover, in unresolvable stress conditions, an increased CHOP expression has been correlated to the induction of the expression of many apoptotic genes and to the down-regulation prosurvival genes, such as Bcl-2 [30].
FIGURE 4 CP induces ER stress Western Blot analysis showing expression of GRP78 and CHOP in SEM (A) and in RS4;11 (B) cells. Cells were treated with CP 2.5 μM for the indicated times. (C) PCR analysis showing the induction of XBP1 splicing in SEM and RS4;11 cells. Cells were treated with CP (2.5 μM) or Tunicamycin (2 μg/ml) as positive control for 12 h.
Cells were treated with CP and Tunicamycin as positive control, collected, centrifuged and washed with PBS. Total RNA was extracted from cells using Trizol (Life Technologies, Italy) as previously described. Primer pair used to amplified XBP1 isoforms: forward 5'-[…]-3', reverse 5'-[…]-3'. To separate isoforms, PCR products were run in 5% agarose gel.

F[P-](F)(F)(F)(F)F.OCP(CO)CO.OCP(CO)CO.OCP(CO)CO.OCP(CO)CO.[Cu+] [CP, [Cu(thp)4][PF6]]
caspase-3 activation and PARP cleavage ([1]; patient cells): induced caspase-3 activation and PARP cleavage
GRP-78 and CHOP expression ([1]; primary cultures): significant increase in the expression of both these markers
intracellular copper content [2]: marked increase of copper intracellular content in comparison with healthy PBMC
XBP1 splicing [3]: induced XBP1 splicing in both cell lines
